From patent publication US20050238730A1, “Compositions comprising an ethanolamine derivative and organic metal salts” (priority 2001, published 2005)

Tested on: human dermal fibroblasts
Test: Fibroblasts proliferation after 10 days of culture (cells trypsinized and counted with a Coulter counter)
Type: cell-based
Conditions: 2% FCS
Procedure: Fibroblasts were seeded in 24 multiwell plates at 25,000 cells per well in 1 ml of DMEM supplemented with fetal calf serum (FCS) and antibiotics. Cultures were incubated 24 hours at 37° C. to allow cell attachment and spreading. Supernatants were then eliminated and replaced with fresh medium supplemented with 2% of FCS and containing the tested product at different concentrations. After 10 days of culture, cells were trypsinized and counted with a Coulter counter.

| Molecule | % effect vs control (metal salt alone 5 ng/ml) [%] | Mean of cell/ml (metal salt alone 5 ng/ml) [cell/ml] | % effect vs control (metal salt alone 50 ng/ml) [%] | Mean of cell/ml (metal salt alone 50 ng/ml) [cell/ml] | % effect vs control (metal salt alone 500 ng/ml) [%] | Mean of cell/ml (metal salt alone 500 ng/ml) [cell/ml] | % effect vs control (DMAE 10^-4 M alone) [%] | % effect vs control (DMAE 10^-5 M alone) [%] |
| --- | --- | --- | --- | --- | --- | --- | --- | --- |
| N[C@@H](CC(=O)[O-])C(=O)[O-].[Mg+2] [Mg aspartate, magnesium aspartate] | 2 | 78073 ± 4231 | 3 | 79400 ± 1674 | 21 | 92753 ± 2771 | – | – |
| zinc gluconate [Zn gluconate] | 0 | – | 3 | – | 11 | – | – | – |
| CN(C)CCO [DMAE, dimethylaminoethanol] | – | – | – | – | – | – | 31 | 14 |
